Among the data in US8962674B2 (Tokyo Institute of Technology, priority 2006, dated 2015) are melting point values, retold here.

In general, melting point refers to the temperature, or range, at which the solid turns liquid.

Turning to `CN(C)c1ccc(/C=C/C(=O)CC(=O)/C=C/c2ccc(N(C)C)cc2[N+](=O)[O-])c([N+](=O)[O-])c1`, the melting point was 245 to 250 °C. As for `O=C(/C=C/c1ccc(O)cc1)CC(=O)/C=C/c1ccccc1N1CCNCC1.O=C(O)C(F)(F)F.O=C(O)C(F)(F)F`, the melting point was 139 to 150 °C.

Take `COc1cc(/C=C/C(=O)CC(=O)/C=C/c2ccc(NC(C)=O)cc2)ccc1O` [CU003, (1E,6E)-N-{4-[7-(4-hydroxy-3-methoxyphenyl)-3,5-dioxohepta-1,6-dienyl]phenyl}acetamide]: the melting point is 193 to 195 °C. Regarding `COc1cc(/C=C/C(=O)CC(=O)/C=C/c2ccc(Oc3ccccc3)cc2)ccc1O` [CU004, (1E,6E)-1-(4-hydroxy-3-methoxyphenyl)-7-(4-phenoxyphenyl)hepta-1,6-diene-3,5-dione], the melting point was in the range of 45 to 46 °C. Compound `COc1cc(/C=C/C(=O)CC(=O)/C=C/c2cc(OC)c(OC)c(OC)c2)ccc1O` [CU006, (1E,6E)-1-(4-hydroxy-3-methoxyphenyl)-7-(3,4,5-trimethoxyphenyl)hepta-1,6-diene-3,5-dione] displayed a melting point of 80 to 83 °C. In turn, `COc1cc(/C=C/C(=O)CC(=O)/C=C/c2ccc(O)c(Cl)c2)ccc1O` [CU007, (1E,6E)-1-(3-chloro-4-hydroxyphenyl)-7-(4-hydroxy-3-methoxyphenyl)hepta-1,6-diene-3,5-dione] showed a melting point of 90 to 95 °C. The compound `COc1cc(/C=C/C(=O)CC(=O)/C=C/c2ccc3c(c2)OCO3)ccc1O` [CU009, (1E,6E)-1-(benzo[1,3]dioxol-5-yl)-7-(4-hydroxy-3-methoxyphenyl)hepta-1,6-diene-3,5-dione] returned a melting point of 149 to 152 °C. Compound `COc1cc(/C=C/C(=O)CC(=O)/C=C/c2ccc(SC)cc2)ccc1O` [CU012, (1E,6E)-1-(4-hydroxy-3-methoxyphenyl)-7-(4-methylthiophenyl)hepta-1,6-diene-3,5-dione] gave a melting point of 147 to 149 °C. Regarding `COc1cc(/C=C/C(=O)C(=Cc2ccncc2)C(C)=O)ccc1O` [CU014, (5E)-6-(4-hydroxy-3-methoxyphenyl)-3-(pyridin-4-ylmethylene)hex-5-ene-2,4-dione], the melting point is 92 to 95 °C.

As to `COc1cc(/C=C/C(=O)CC(=O)/C=C/c2ccco2)ccc1O` [CU015, (1E,6E)-1-(furan-2-yl)-7-(4-hydroxy-3-methoxyphenyl)hepta-1,6-diene-3,5-dione], the melting point is 48 to 50 °C. The same measure for `COc1cc(/C=C/C(=O)CC(=O)/C=C/c2cccs2)ccc1O` [CU016, (1E,6E)-1-(4-hydroxy-3-methoxyphenyl)-7-(thiophen-2-yl)hepta-1,6-diene-3,5-dione]: 52 to 54 °C; for `COc1cc(/C=C/C(=O)CC(=O)/C=C/c2ccc(OCCCN(C)C)cc2)ccc1O` [CU018, (1E,6E)-1-[4-(3-dimethylaminopropoxy)phenyl]-7-(4-hydroxy-3-methoxyphenyl)hepta-1,6-diene-3,5-dione]: 155 to 159 °C; for `COc1cc(/C=C/C(=O)CC(=O)/C=C/c2ccc(Cl)cc2)ccc1O` [CU020, (1E,6E)-1-(4-chlorophenyl)-7-(4-hydroxy-3-methoxyphenyl)hepta-1,6-diene-3,5-dione]: 59 to 61 °C. For the compound `COc1cc(/C=C/C(=O)CC(=O)/C=C/c2cc(Cl)cc(Cl)c2O)ccc1O` [CU021, (1E,6E)-1-(3,5-dichloro-2-hydroxyphenyl)-7-(4-hydroxy-3-methoxyphenyl)hepta-1,6-diene-3,5-dione], the melting point is 185 to 188 °C. The same measure for `COc1cc(/C=C/C(=O)CC(=O)/C=C/c2cccnc2)ccc1O` [CU024, (1E,6E)-1-(4-hydroxy-3-methoxyphenyl)-7-(pyridin-3-yl)hepta-1,6-diene-3,5-dione]: 176 to 179 °C; for `COc1ccc(/C=C/C(=O)CC(=O)/C=C/c2ccc(O)cc2)cc1O` [CU027, (1E,6E)-1-(3-hydroxy-4-methoxyphenyl)-7-(4-hydroxyphenyl)hepta-1,6-diene-3,5-dione]: 207 to 210 °C. As for `Cc1cc(/C=C/C(=O)CC(=O)/C=C/c2ccc(O)cc2)ccc1O` [CU029, (1E,6E)-1-(4-hydroxy-3-methylphenyl)-7-(4-hydroxyphenyl)hepta-1,6-diene-3,5-dione], the figure is 197 to 199 °C; as for `COc1cc(/C=C/C(=O)CC(=O)/C=C/c2ccc(O)c(F)c2)ccc1O` [CU032, (1E,6E)-1-(3-fluoro-4-hydroxyphenyl)-7-(4-hydroxy-3-methoxyphenyl)hepta-1,6-diene-3,5-dione], 186 to 189 °C. For `COc1cc(/C=C/C(=O)CC(=O)/C=C/c2ccc(N(C)C)c(OC)c2)ccc1O` [CU033, (1E,6E)-1-(4-dimethylamino-3-methoxyphenyl)-7-(4-hydroxy-3-methoxyphenyl)hepta-1,6-diene-3,5-dione], the melting point lay within 68 to 75 °C.

As for `COc1ccc(/C=C/C(=O)CC(=O)/C=C/c2ccc(O)c(F)c2)cc1O` [CU035, (1E,6E)-1-(3-fluoro-4-hydroxyphenyl)-7-(3-hydroxy-4-methoxyphenyl)hepta-1,6-diene-3,5-dione], the melting point was in the range of 173 to 176 °C.

Compound `COc1ccc(/C=C/C(=O)CC(=O)/C=C/c2ccc(N(C)C)c(OC)c2)cc1O` [CU036, (1E,6E)-1-(4-dimethylamino-3-methoxyphenyl)-7-(3-hydroxy-4-methoxyphenyl)hepta-1,6-diene-3,5-dione] showed a melting point of 65 to 70 °C. For `O=C(/C=C/c1ccc(O)cc1)CC(=O)/C=C/c1ccc(O)c([N+](=O)[O-])c1` [CU039, (1E,6E)-1-(4-hydroxy-3-nitrophenyl)-7-(4-hydroxyphenyl)hepta-1,6-diene-3,5-dione], the melting point was 240 to 245 °C. In turn, `COc1cc(/C=C/C(=O)CC(=O)/C=C/c2ccc(O)c([N+](=O)[O-])c2)ccc1O` [CU040, (1E,6E)-1-(4-hydroxy-3-methoxyphenyl)-7-(4-hydroxy-3-nitrophenyl)hepta-1,6-diene-3,5-dione] showed a melting point of 209 to 213 °C. `COc1ccc(/C=C/C(=O)CC(=O)/C=C/c2ccc(O)c([N+](=O)[O-])c2)cc1O` [CU041, (1E,6E)-1-(3-hydroxy-4-methoxyphenyl)-7-(4-hydroxy-3-nitrophenyl)hepta-1,6-diene-3,5-dione] showed a melting point of 220 to 224 °C. `O=C(/C=C/c1ccc(O)cc1)CC(=O)/C=C/c1ccc(O)c(Cl)c1` [CU042, (1E,6E)-1-(3-chloro-4-hydroxyphenyl)-7-(4-hydroxyphenyl)hepta-1,6-diene-3,5-dione]: the melting point was 184 to 190 °C. With `COc1ccc(/C=C/C(=O)CC(=O)/C=C/c2ccc(O)c(Cl)c2)cc1O` [CU044, (1E,6E)-1-(3-chloro-4-hydroxyphenyl)-7-(3-hydroxy-4-methoxyphenyl)hepta-1,6-diene-3,5-dione], the melting point lay within 195 to 197 °C. As to `O=C(/C=C/c1ccc(O)cc1)CC(=O)/C=C/c1ccc(Cl)c(Cl)c1` [CU045, (1E,6E)-1-(3,4-dichlorophenyl)-7-(4-hydroxyphenyl)hepta-1,6-diene-3,5-dione], the melting point was in the range of 83 to 85 °C. Take `COc1cc(/C=C/C(=O)CC(=O)/C=C/c2ccc(Cl)c(Cl)c2)ccc1O` [CU046, (1E,6E)-1-(3,4-dichlorophenyl)-7-(4-hydroxy-3-methoxyphenyl)hepta-1,6-diene-3,5-dione]: the melting point was in the range of 70 to 76 °C. For the compound `COc1cc(/C=C/C(=O)CC(=O)/C=C/c2ccc(O)cc2)ccc1N(C)C` [CU048, (1E,6E)-1-(4-dimethylamino-3-methoxyphenyl)-7-(4-hydroxyphenyl)hepta-1,6-diene-3,5-dione], the melting point lay within 84 to 86 °C. On to `COc1ccc(/C=C/C(=O)CC(=O)/C=C/c2ccc([N+](=O)[O-])c(OC)c2)cc1O` [CU049, (1E,6E)-1-(3-hydroxy-4-methoxyphenyl)-7-(3-methoxy-4-nitrophenyl)hepta-1,6-diene-3,5-dione], for which the melting point fell in the range of 196 to 199 °C. `COc1cc(/C=C/C(=O)CC(=O)/C=C/c2ccc(O)cc2)ccc1[N+](=O)[O-]` [CU050, (1E,6E)-1-(4-hydroxyphenyl)-7-(3-methoxy-4-nitrophenyl)hepta-1,6-diene-3,5-dione]: the melting point was 190 to 192 °C.

In turn, `COc1cc(/C=C/C(=O)CC(=O)/C=C/c2ccc([N+](=O)[O-])c(OC)c2)ccc1O` [CU051, (1E,6E)-1-(4-hydroxy-3-methoxyphenyl)-7-(3-methoxy-4-nitrophenyl)hepta-1,6-diene-3,5-dione] displayed a melting point of 157 to 163 °C. Compound `COc1ccc(/C=C/C(=O)CC(=O)/C=C/c2ccc(O)c(C)c2)cc1O` [CU052, (1E,6E)-1-(3-hydroxy-4-methoxyphenyl)-7-(4-hydroxy-3-methylphenyl)hepta-1,6-diene-3,5-dione] gave a melting point of 215 to 218 °C. Take `COc1cc(/C=C/C(=O)CC(=O)/C=C/c2ccc(C)c(C)c2)ccc1O` [CU057, (1E,6E)-1-(3,4-dimethylphenyl)-7-(4-hydroxy-3-methoxyphenyl)hepta-1,6-diene-3,5-dione]: the melting point lay within 132 to 133 °C.

Consider `COc1ccc(/C=C/C(=O)CC(=O)/C=C/c2ccc(C)c(C)c2)cc1O` [CU058, (1E,6E)-1-(3,4-dimethylphenyl)-7-(3-hydroxy-4-methoxyphenyl)hepta-1,6-diene-3,5-dione], for which the melting point lay within 150 to 154 °C. `COc1ccc(/C=C/C(=O)CC(=O)/C=C/c2ccc(OC)c(O)c2)cc1` [CU065, (1E,6E)-1-(3-hydroxy-4-methoxyphenyl)-7-(4-methoxyphenyl)hepta-1,6-diene-3,5-dione] showed a melting point of 137 to 140 °C. `COc1ccccc1/C=C/C(=O)CC(=O)/C=C/c1ccc(O)cc1` [CU066, (1E,6E)-1-(4-hydroxyphenyl)-7-(2-methoxyphenyl)hepta-1,6-diene-3,5-dione] yielded a melting point of 171 to 178 °C. Consider `COc1cc(/C=C/C(=O)CC(=O)/C=C/c2ccccc2OC)ccc1O` [CU067, (1E,6E)-1-(4-hydroxy-3-methoxyphenyl)-7-(2-methoxyphenyl)hepta-1,6-diene-3,5-dione], for which the melting point is 61 to 66 °C. The compound `COc1ccc(/C=C/C(=O)CC(=O)/C=C/c2ccccc2OC)cc1O` [CU068, (1E,6E)-1-(3-hydroxy-4-methoxyphenyl)-7-(2-methoxyphenyl)hepta-1,6-diene-3,5-dione] registered a melting point of 102 to 108 °C.
